Test results from ChEMBL document CHEMBL5346930, “Discovery of novel N-benzylarylamide-dithiocarbamate based derivatives as dual inhibitors of tubulin polymerization and LSD1 that inhibit gastric cancers” (Eur J Med Chem, 2023).
Activity calls are given as the source filed them. The rule behind the calls is not given here.

Tests used:
A549 = assay: Antiproliferative activity against human A549 cells assessed as inhibition of cell growth incubated for 48 hrs by MTT assay; assay type: functional, cell-based; details: A549, 48 h
MGC-803 [1] = assay: cells; details: Homo sapiens, MGC-803, 48 h
Description: Antiproliferative activity against human MGC-803 cells assessed as inhibition of cell growth incubated for 48 hrs by MTT assay

SGC-7901 [2] = assay: Induction of apoptosis in human SGC-7901 cells assessed as increase in cleaved PARP level at 0 to 30 nmol/L incubated for 48 hrs by Western blot analysis; assay type: functional, cell-based; details: dose 0-30 nmol/L
MGC-803 [3] = assay: Induction of apoptosis in human MGC-803 cells assessed as increase in cleaved PARP level at 0 to 24 nmol/L incubated for 48 hrs by Western blot analysis; assay type: functional, cell-based; details: dose 0-24 nmol/L
SGC-7901 [4] = assay: Induction of apoptosis in human SGC-7901 cells assessed as increase in cleaved caspase-3 level at 0 to 30 nmol/L incubated for 48 hrs by Western blot analysis; assay type: functional, cell-based; details: dose 0-30 nmol/L
SGC-7901 [5] = assay: Induction of apoptosis in human SGC-7901 cells assessed as activation of caspase-7 at 0 to 30 nmol/L incubated for 48 hrs by Western blot analysis; assay type: functional, cell-based; details: dose 0-30 nmol/L
ECa-109 cell line = assay: Antiproliferative activity against human EC109 cells assessed as inhibition of cell growth incubated for 48 hrs by MTT assay; assay type: functional, cell-based; details: ECa-109, 48 h
[6] = target: T1, Tubulin beta (Homo sapiens) (UniProt P68371+Q9H4B7+Q13509+P04350+Q3ZCM7+P07437+Q13885+Q9BVA1+Q9BUF5+A6NNZ2); assay: Binding affinity to colchicine binding site of beta-tubulin in human SGC-7901 cells assessed as inhibition of beta-tubulin alkylation by measuring disappearance of beta-tubulin-EBI adduct band pretreated for 2 hrs followed by EBI addition and measured after 2 hrs by Western blot analysis; assay type: cell-based; details: dose 0-10 µM, time 4.0 hrs
Huh-7 = assay: Antiproliferative activity against human Huh-7 cells assessed as inhibition of cell growth incubated for 48 hrs by MTT assay; assay type: functional, cell-based; details: Huh-7, 48 h
MGC-803 [7] = assay: Induction of apoptosis in human MGC-803 cells assessed as activation of caspase-7 at 0 to 24 nmol/L incubated for 48 hrs by Western blot analysis; assay type: functional, cell-based; details: dose 0-24 nmol/L
[8] = target: T1, Tubulin beta (Homo sapiens); assay: Binding affinity to colchicine binding site of beta-tubulin in human MGC-803 cells assessed as inhibition of beta-tubulin alkylation by measuring disappearance of beta-tubulin-EBI adduct band pretreated for 2 hrs followed by EBI addition and measured after 2 hrs by Western blot analysis; assay type: cell-based; details: dose 0-10 µM, time 4.0 hrs
MGC-803 [9] = assay: Induction of DNA damage in human MGC-803 cells assessed as DNA fragmentation by measuring increase in comet tails by fluorescence microscope based comet assay; assay type: functional, cell-based; details: dose 0-24 nmol/L
[10] = target: T2, Lysine-specific histone demethylase 1A (Homo sapiens, UniProt O60341); assay: Inhibition of LSD1 in human MGC-803 cells assessed as increase in H3K4me2 expression level at 0 to 24 nmol/L incubated for 48 hrs by Western blot analysis; assay type: cell-based; details: dose 0-24 nmol/L
[11] = Hepatotoxicity in BALB/c nude mouse xenografted with human MGC-803 cells assessed as effect on ALT level at 25 mg/kg/day, ip administered every day for 21 days; assay type: toxicity, organism-based; details: in vivo, 504 h, time 21 day
SGC-7901 [12] = assay: Induction of apoptosis in human SGC-7901 cells assessed as increase in cleaved caspase-7 level at 0 to 30 nmol/L incubated for 48 hrs by Western blot analysis; assay type: functional, cell-based; details: dose 0-30 nmol/L
SGC-7901 [13] = assay: Induction of cell cycle arrest in human SGC-7901 cells assessed as accumulation of cells at G2/M phase incubated for 48 hrs; assay type: functional, cell-based; details: dose 0-30 nmol/L
[14] = Toxicity in BALB/c nude mouse xenografted with human MGC-803 cells assessed as reduction in body weight at 25 mg/kg/day, ip administered every day for 21 days; assay type: organism-based; details: in vivo, 504 h, time 21 day
SGC-7901 [15] = assay: Induction of cell cycle arrest in human SGC-7901 cells assessed as reduction in cyclin B1 protein expression incubated for 48 hrs by Western blot analysis; assay type: functional, cell-based; details: dose 0-30 nmol/L
TE-1 = assay: Antiproliferative activity against human TE-1 cells assessed as inhibition of cell growth incubated for 48 hrs by MTT assay; assay type: functional, cell-based; details: TE-1, 48 h
SGC-7901 [16] = assay: Induction of morphological changes in human SGC-7901 cells assessed as appearance of broken nucleus at 30 nM incubated for 48 hrs by DAPI staining based analysis; assay type: functional, cell-based
SGC-7901 [17] = assay: Induction of morphological changes in human SGC-7901 cells assessed as appearance of oblate and bright cells at 0 to 30 nmol/L incubated for 48 hrs by bright field microscopic analysis; assay type: functional, cell-based; details: dose 0-30 nmol/L
MGC-803 [18] = assay: Inhibition of cell migration in human MGC-803 cells assessed as reduction in rate of wound healing at 4 nmol/L measured after 0 to 48 hrs; assay type: functional, cell-based; details: time 0-48 hrs
KYSE-450 = assay: cells; details: Homo sapiens, KYSE-450, 48 h
Description: Antiproliferative activity against human KYSE-450 cells assessed as inhibition of cell growth incubated for 48 hrs by MTT assay

SGC-7901 [19] = assay: Induction of cell cycle arrest in human SGC-7901 cells assessed as downregulation of CDC2 protein expression incubated for 48 hrs by Western blot analysis; assay type: functional, cell-based; details: dose 0-30 nmol/L
MGC-803 [20] = assay: Induction of morphological changes in human MGC-803 cells assessed as appearance of bright and shrunken nucleus at 0 to 24 nmol/L incubated for 48 hrs by DAPI staining based analysis; assay type: functional, cell-based; details: dose 0-24 nmol/L
SGC-7901 [21] = assay: Induction of apoptosis in human SGC-7901 cells assessed as downregulation of Mcl-1 protein expression incubated for 48 hrs by Western blot analysis; assay type: functional, cell-based; details: dose 0-30 nmol/L
[22] = target: T2, Lysine-specific histone demethylase 1A; assay: Inhibition of LSD1 in human MGC-803 cells assessed as increase in H3K4me1 expression level at 0 to 24 nmol/L incubated for 48 hrs by Western blot analysis; assay type: cell-based; details: dose 0-24 nmol/L
[23] = Hepatotoxicity in BALB/c nude mouse xenografted with human MGC-803 cells assessed as effect on AST level at 25 mg/kg/day, ip administered every day for 21 days; assay type: toxicity, organism-based; details: in vivo, 504 h, time 21 day
MCF7 = assay: Antiproliferative activity against human MCF7 cells assessed as inhibition of cell growth incubated for 48 hrs by MTT assay; assay type: functional, cell-based; details: MCF7, 48 h
SGC-7901 [24] = assay: Induction of morphological changes in human SGC-7901 cells assessed as reduction in cell density at 0 to 30 nmol/L incubated for 48 hrs by bright field microscopic analysis; assay type: functional, cell-based; details: dose 0-30 nmol/L
MGC-803 [25] = assay: Induction of morphological changes in human MGC-803 cells assessed as reduction in cell density at 0 to 24 nmol/L incubated for 48 hrs by bright field microscopic analysis; assay type: functional, cell-based; details: dose 0-24 nmol/L
[26] = Nephrotoxicity in BALB/c nude mouse xenografted with human MGC-803 cells assessed as effect on BUN level at 25 mg/kg/day, ip administered every day for 21 days; assay type: toxicity, organism-based; details: in vivo, 504 h, time 21 day
MGC-803 [27] = assay: Antitumor activity against human MGC-803 cells xenografted in BALB/c nude mouse assessed as reduction in tumor weight at 25 mg/kg/day, ip administered every day for 21 days; assay type: functional, organism-based; details: time 21.0 day
MGC-803 [28] = assay: Antitumor activity against human MGC-803 cells xenografted in BALB/c nude mouse assessed as reduction in tumor volume at 25 mg/kg/day, ip administered every day for 21 days; assay type: functional, organism-based; details: time 21.0 day

In the case of `COc1ccc(CN(C(=O)CSC(=S)N2CCN(c3ccc(N)cc3)CC2)c2cc(OC)c(OC)c(OC)c2)cc1O`, the IC50 (A549) is reported as 254 nM, the IC50 (MGC-803 [1]) is reported as 17 nM and the Activity (SGC-7901 [2]) is reported as “Active”. For the same compound, the Activity (MGC-803 [3]) was “Active”, the Activity (SGC-7901 [4]) was “Active” and the Activity (SGC-7901 [5]) was “Active”. For the same compound, the IC50 (ECa-109 cell line) was 114 nM, the Activity [6] was “Dose-Dependent Effect” and the IC50 (Huh-7) was 47.9 nM. The Activity (MGC-803 [7]) was “Active”, the Activity [8] was “Dose-Dependent Effect” and the Activity (MGC-803 [9]) was “Dose-Dependent Effect”. For the same compound, the inhibition [10] was “Active”, the Activity [11] was “Non-Toxic” and the Activity (SGC-7901 [12]) was “Active”. For the same compound, the Activity (SGC-7901 [13]) was “Dose-Dependent Effect”, the Activity [14] was “Non-Toxic” and the Activity (SGC-7901 [15]) was “Dose-Dependent Effect”. The IC50 (TE-1) was 31.4 nM, the Activity (SGC-7901 [16]) was “Active” and the Activity (SGC-7901 [17]) was “Active”. The inhibition (MGC-803 [18]) was “Active”, the IC50 (KYSE-450) was 30 nM and the Activity (SGC-7901 [19]) was “Dose-Dependent Effect”. The Activity (MGC-803 [20]) was “Active”, the Activity (SGC-7901 [21]) was “Dose-Dependent Effect” and the inhibition [22] was “Active”. For the same compound, the Activity [23] was “Non-Toxic”, the IC50 (MCF7) was 34.4 nM and the Activity (SGC-7901 [24]) was “Active”. The Activity (MGC-803 [25]) was “Active”, the Activity [26] was “Non-Toxic” and the Activity (MGC-803 [27]) was “Active”. For the same compound, the Activity (MGC-803 [28]) was “Active”.
